# Data from PMC9781827, “Isolation and Identification of Anti-Inflammatory Peptide from Goose Blood Hydrolysate to Ameliorate LPS-Mediated Inflammation and Oxidative Stress in RAW264.7 Macrophages” (Molecules, 2022).
# Where “and” joins values, the source holds several entries; their conditions need not be identical. Equal values may be shown once.
# What was measured:
# Assay type in all cases: cell-based
# GSH-Px = GSH-Px activity in LPS-mediated RAW264.7 macrophages; settings: LPS alone; mean ± S.D., n = 3
# Procedure: The culture medium was collected and centrifuged at 3000× g for 10 min. Then, the inflammatory cytokines levels of TNF-α (MB-50051A), IL-1β (MB-50064B) and IL-6 (MB-50054A) in the culture medium were determined with ELISA kits (Jiangsu Enzyme marker Biotechnology Co., Ltd., Yancheng, China). […] (7) Add 50 μL of stop solution to each well, and measure its absorbance value at 450 nm wavelength. The activities of SOD, GSH-Px and the levels of ROS and Nitric oxide (NO) in macrophages were determined with spectrophotometric kits. […] The absorbance value of miscible liquid was measured at 450 nm wavelength by a multifunctional microplate reader; GSH-Px: 0.2 mL of sample was mixed with 0.2 mL GSH-Px (1 mmol/L) and performed at 37 °C for 5 min. […] The absorbance value was measured at 412 nm wavelength by a multifunctional microplate reader; ROS: DCFH-DA probe was added directly to serum-free medium: DCFH-DA was generally diluted with serum-free medium at a final concentration of 10 µM at 1:1000. […] In general, obvious green fluorescence can be observed in positive control cells after 20 min of stimulation. […] It can also be detected according to FITC fluorescence detection conditions. The results were expressed as fluorescence values.
# IL-1β = IL-1β level by ELISA in culture medium, model of LPS-mediated RAW264.7 macrophage inflammation; settings: LPS group: LPS (1.0 μg/mL) alone, 24 h; mean ± S.D., n = 3
# Procedure: (§1) The anti-inflammatory activity of the peptides was determined according to the methods of a previous study. The anti-inflammatory activity of different fractions was evaluated by measuring the levels of the inflammatory cytokines (TNF-α, IL-1β and IL-6) in a model of LPS-induced macrophage inflammation with ELISA kits (Jiangsu Enzyme marker Biotechnology Co., Ltd., Yancheng, China). […] A 20 mmol/L Tris-HCl (pH 8.0) solution was used as the start buffer and 20 mmol/L Tris-HCl/1 mol/L NaCl (pH 8.0) was used as elution buffer. Elution program: (1) wash with 5 column volumes of starting buffer; (2) elute with 10 column volumes of 50% elution buffer and 50% start buffer; (3) elute with 5 column volumes of 100% elution buffer. The above flow rates were 5 mL/min. The fractions were detected at 280 nm by an ultraviolet detector and collected by an automatic fraction collector.
# (§2) The method of RAW264.7 macrophage culture and treatments were based on the study of Li et al.. […] Macrophages from passages 5 to 10 were selected to seed on 96-well culture plates at a density of 4 × 10^5 cells/well and cultured with different concentrations of LPS (0.5 μg/mL, 1.0 μg/mL and 2.0 μg/mL) for 24 h. The optimal concentration of LPS for inducing inflammation in the RAW264.7 macrophage was ensured according to cell viability. […] The ability of GBP to protect RAW264.7 macrophages was evaluated. […]
# TNF-α = TNF-α level by ELISA in culture medium, model of LPS-mediated RAW264.7 macrophage inflammation; settings: LPS group: LPS (1.0 μg/mL) alone, 24 h; mean ± S.D., n = 3
# Procedure: as §1, §2
substance,measurement,setting,value
lipopolysaccharide [LPS],level of GSH-Px,GSH-Px,44.63 ± 2.72 U/mg prot
same,level of IL-1β,IL-1β,485.75 ± 50.29 pg/mL
same,level of TNF-α,TNF-α,271.35 ± 17.35 pg/mL and 273.77 ± 11.93 pg/mL
